Results published in the kinase profiling compilation of Christmann-Franck et al. (2016).

Experiments:
Experiment in all cases: Caliper, Mobility shift assay off-chip
[1] = biological target: SGK2 (human) (UniProt Q9HBY8)
[2] = biological target: CHEK1 (human) (UniProt O14757)
[3] = biological target: IRAK4 (human) (UniProt Q9NWZ3)
[4] = biological target: PAK2 (human) (UniProt Q13177)
[5] = biological target: FGFR4 (human) (UniProt P22455)
[6] = biological target: RPS6KA2 KD1 KD2 (human) (UniProt Q15349)
[7] = biological target: RPS6KA5 KD1 KD2 (human) (UniProt O75582)
[8] = biological target: PIM2 (human) (UniProt Q9P1W9)
[9] = biological target: MAPK12 (human) (UniProt P53778)
[10] = biological target: AURKB (human) (UniProt Q96GD4)
[11] = biological target: SRC (human) (UniProt P12931)
[12] = biological target: PRKCZ (human) (UniProt Q05513)
[13] = biological target: STK3 (human) (UniProt Q13188)
[14] = biological target: PRKCQ (human) (UniProt Q04759)
[15] = biological target: PRKCG (human) (UniProt P05129)
[16] = biological target: BTK (human) (UniProt Q06187)
[17] = biological target: KDR (human) (UniProt P35968)
[18] = biological target: AURKC (human) (UniProt Q9UQB9)
[19] = biological target: RPS6KA1 KD1 KD2 (human) (UniProt Q15418)
[20] = biological target: PRKCD (human) (UniProt Q05655)
[21] = biological target: AKT2 (human) (UniProt P31751)
[22] = biological target: LCK (human) (UniProt P06239)
[23] = biological target: MAPK13 (human) (UniProt O15264)
[24] = biological target: RPS6KA3 KD1 KD2 (human) (UniProt P51812)

PAK2 (human), sequence (Q13177 whole entry, looked up): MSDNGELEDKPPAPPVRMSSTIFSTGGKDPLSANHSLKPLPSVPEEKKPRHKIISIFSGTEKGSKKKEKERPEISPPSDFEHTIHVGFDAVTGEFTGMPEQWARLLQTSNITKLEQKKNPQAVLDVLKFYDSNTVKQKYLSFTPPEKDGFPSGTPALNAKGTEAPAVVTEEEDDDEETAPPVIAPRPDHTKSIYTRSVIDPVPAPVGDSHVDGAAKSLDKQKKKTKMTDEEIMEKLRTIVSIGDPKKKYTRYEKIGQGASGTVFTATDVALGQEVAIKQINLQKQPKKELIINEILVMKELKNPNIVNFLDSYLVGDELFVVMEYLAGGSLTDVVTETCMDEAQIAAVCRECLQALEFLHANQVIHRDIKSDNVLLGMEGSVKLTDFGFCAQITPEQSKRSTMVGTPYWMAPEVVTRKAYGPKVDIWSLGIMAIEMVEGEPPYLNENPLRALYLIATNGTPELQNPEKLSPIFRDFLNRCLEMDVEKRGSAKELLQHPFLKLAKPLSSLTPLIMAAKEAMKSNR
PRKCD (human), sequence (Q05655 whole entry, looked up): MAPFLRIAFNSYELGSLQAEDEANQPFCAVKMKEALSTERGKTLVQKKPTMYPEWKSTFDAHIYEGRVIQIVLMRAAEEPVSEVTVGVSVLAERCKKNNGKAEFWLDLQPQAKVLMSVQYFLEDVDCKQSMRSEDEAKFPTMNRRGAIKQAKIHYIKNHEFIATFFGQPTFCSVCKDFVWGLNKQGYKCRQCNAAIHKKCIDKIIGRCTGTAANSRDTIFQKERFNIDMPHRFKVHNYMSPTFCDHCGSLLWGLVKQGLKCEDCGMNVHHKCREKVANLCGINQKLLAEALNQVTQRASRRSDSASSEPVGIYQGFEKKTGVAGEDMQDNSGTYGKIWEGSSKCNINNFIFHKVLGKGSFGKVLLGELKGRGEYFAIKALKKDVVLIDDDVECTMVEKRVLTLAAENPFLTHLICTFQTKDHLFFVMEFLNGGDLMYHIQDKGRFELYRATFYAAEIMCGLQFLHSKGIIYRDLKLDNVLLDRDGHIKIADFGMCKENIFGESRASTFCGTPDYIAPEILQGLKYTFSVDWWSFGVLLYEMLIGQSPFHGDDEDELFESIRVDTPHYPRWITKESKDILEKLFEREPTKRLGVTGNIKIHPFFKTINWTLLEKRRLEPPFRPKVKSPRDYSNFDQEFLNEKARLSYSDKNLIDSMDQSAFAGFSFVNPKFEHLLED
RPS6KA2 KD1 KD2 (human), sequence (Q15349 whole entry, looked up): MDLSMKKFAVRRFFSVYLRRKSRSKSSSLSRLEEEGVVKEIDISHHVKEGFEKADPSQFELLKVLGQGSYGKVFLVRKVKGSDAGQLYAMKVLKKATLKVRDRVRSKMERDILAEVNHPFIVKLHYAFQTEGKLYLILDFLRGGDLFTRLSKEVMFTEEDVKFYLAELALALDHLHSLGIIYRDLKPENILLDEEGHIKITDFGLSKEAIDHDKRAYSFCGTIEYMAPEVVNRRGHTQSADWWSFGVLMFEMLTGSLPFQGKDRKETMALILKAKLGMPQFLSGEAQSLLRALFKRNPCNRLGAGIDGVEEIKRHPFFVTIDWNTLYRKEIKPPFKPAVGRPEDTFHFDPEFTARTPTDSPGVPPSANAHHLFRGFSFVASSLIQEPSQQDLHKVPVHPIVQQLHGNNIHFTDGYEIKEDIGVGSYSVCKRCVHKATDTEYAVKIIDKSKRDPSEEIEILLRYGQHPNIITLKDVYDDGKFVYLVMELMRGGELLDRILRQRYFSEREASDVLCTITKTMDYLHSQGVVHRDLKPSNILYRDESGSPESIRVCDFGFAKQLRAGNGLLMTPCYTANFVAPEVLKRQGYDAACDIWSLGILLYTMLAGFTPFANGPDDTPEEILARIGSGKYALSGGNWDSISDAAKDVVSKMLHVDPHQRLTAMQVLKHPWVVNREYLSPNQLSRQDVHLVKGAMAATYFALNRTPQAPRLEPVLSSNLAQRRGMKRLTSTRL
KDR (human), sequence (P35968 whole entry, looked up): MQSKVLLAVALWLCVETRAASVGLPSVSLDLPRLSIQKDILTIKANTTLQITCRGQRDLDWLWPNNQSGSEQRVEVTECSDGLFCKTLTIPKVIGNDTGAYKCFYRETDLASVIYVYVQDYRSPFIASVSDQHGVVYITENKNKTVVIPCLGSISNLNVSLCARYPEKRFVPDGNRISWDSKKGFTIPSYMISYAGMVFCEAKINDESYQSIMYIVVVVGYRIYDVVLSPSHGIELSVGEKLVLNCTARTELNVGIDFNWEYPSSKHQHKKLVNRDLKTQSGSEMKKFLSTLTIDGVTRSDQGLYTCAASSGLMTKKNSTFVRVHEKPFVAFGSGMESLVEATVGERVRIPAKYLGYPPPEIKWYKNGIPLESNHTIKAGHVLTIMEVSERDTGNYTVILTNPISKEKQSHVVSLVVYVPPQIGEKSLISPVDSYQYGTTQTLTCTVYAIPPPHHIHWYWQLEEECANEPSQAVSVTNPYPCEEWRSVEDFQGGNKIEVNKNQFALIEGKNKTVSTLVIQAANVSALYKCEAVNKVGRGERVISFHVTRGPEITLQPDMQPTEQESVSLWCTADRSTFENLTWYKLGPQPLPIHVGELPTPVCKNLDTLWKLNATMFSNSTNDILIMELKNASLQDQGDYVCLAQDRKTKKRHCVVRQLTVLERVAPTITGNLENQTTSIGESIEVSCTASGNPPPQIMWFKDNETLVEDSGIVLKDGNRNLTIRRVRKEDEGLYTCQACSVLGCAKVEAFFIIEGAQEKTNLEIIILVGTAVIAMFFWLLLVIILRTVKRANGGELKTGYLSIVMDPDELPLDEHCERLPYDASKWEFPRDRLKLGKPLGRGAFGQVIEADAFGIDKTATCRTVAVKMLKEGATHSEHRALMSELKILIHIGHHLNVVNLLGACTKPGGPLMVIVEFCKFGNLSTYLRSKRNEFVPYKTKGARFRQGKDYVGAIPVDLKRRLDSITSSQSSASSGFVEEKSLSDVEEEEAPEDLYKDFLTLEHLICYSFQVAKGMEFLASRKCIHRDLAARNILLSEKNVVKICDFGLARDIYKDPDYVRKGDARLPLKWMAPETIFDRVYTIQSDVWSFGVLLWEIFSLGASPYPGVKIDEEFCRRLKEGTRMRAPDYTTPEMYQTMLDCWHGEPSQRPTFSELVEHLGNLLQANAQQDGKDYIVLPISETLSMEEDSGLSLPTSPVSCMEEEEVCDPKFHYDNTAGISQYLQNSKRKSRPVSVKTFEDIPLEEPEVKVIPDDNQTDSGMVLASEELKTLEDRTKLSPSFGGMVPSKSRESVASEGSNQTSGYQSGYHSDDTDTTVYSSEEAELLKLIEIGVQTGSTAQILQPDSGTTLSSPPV
RPS6KA5 KD1 KD2 (human), sequence (O75582 whole entry, looked up): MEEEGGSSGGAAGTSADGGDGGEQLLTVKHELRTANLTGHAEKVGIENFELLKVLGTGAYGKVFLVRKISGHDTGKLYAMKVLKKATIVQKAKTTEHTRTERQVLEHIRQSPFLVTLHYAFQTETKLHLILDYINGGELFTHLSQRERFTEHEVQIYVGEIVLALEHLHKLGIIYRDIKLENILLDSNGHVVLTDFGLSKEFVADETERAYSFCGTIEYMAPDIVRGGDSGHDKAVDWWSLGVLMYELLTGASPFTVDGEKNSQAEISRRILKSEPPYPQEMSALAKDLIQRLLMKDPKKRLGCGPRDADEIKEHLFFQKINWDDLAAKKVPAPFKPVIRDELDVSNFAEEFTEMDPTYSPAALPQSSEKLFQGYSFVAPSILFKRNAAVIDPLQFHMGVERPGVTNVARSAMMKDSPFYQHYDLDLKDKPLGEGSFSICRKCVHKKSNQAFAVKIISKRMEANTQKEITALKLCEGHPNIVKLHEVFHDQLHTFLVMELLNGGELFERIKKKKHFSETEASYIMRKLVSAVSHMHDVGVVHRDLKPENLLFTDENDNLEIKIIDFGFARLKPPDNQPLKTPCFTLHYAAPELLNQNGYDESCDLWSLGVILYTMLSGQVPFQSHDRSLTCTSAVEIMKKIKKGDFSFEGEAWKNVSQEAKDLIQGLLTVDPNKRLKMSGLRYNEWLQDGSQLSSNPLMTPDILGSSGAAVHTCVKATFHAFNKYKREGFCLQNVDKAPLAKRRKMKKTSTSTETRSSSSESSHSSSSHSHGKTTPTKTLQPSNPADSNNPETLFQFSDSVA
AURKC (human), sequence (Q9UQB9 whole entry, looked up): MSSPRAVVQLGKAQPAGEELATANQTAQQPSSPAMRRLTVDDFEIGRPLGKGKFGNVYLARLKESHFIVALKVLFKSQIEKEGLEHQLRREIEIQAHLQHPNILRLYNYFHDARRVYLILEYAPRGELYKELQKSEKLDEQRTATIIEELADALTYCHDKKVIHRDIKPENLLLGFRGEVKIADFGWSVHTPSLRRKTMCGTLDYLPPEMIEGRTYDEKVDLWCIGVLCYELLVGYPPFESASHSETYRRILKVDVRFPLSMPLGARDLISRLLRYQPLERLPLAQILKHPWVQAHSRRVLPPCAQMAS
PIM2 (human), sequence (Q9P1W9 whole entry, looked up): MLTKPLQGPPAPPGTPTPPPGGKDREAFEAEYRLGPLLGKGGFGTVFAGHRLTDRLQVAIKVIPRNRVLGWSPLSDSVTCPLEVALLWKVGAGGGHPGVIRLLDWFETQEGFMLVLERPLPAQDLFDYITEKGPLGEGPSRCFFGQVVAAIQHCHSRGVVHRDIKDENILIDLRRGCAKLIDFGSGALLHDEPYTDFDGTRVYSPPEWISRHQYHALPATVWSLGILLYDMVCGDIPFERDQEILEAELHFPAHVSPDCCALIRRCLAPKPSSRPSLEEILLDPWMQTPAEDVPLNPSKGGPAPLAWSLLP

Work on O=c1c2cc(CS(=O)(=O)NCc3ccccn3)ccc2ccc2ncc(C3CCNCC3)cc12 yielded an inhibition ([1]; compound 0.01 µM) of -4.2%, an inhibition ([1]; compound 0.1 µM) of 4.7% and an inhibition ([2]; compound 0.01 µM) of -2.8%. It also gave an inhibition ([2]; compound 0.1 µM) of -6%, an inhibition ([3]; compound 0.01 µM) of 19.1% and an inhibition ([3]; compound 0.1 µM) of -1.2%. For the same molecule, the inhibition ([4]; compound 0.01 µM) was 0.1%, the inhibition ([4]; compound 0.1 µM) was 3.6% and the inhibition ([5]; compound 0.01 µM) was 12.6%. It also gave an inhibition ([5]; compound 0.1 µM) of -18.4%, an inhibition ([6]; compound 0.01 µM) of -8.9% and an inhibition ([6]; compound 0.1 µM) of 2%. For the same molecule, the inhibition ([7]; compound 0.01 µM) was -5.1%, the inhibition ([7]; compound 0.1 µM) was -2.9% and the inhibition ([8]; compound 0.01 µM) was 4.3%. For the same molecule, the inhibition ([8]; compound 0.1 µM) was 2.9%, the inhibition ([9]; compound 0.01 µM) was -3.3% and the inhibition ([9]; compound 0.1 µM) was -4.6%. It also gave an inhibition ([10]; compound 0.01 µM) of 3.2%, an inhibition ([10]; compound 0.1 µM) of 17% and an inhibition ([11]; compound 0.01 µM) of -3.8%. The inhibition ([11]; compound 0.1 µM) was -4.2%, the inhibition ([12]; compound 0.01 µM) was -0.3% and the inhibition ([12]; compound 0.1 µM) was 4.6%. It also gave an inhibition ([13]; compound 0.01 µM) of 1.5%, an inhibition ([13]; compound 0.1 µM) of 0.6% and an inhibition ([14]; compound 0.01 µM) of 3.4%. It also gave an inhibition ([14]; compound 0.1 µM) of -3.8%, an inhibition ([15]; compound 0.01 µM) of -3.2% and an inhibition ([15]; compound 0.1 µM) of 1.8%. For the same molecule, the inhibition ([16]; compound 0.01 µM) was 5.6%, the inhibition ([16]; compound 0.1 µM) was 5.1% and the inhibition ([17]; compound 0.01 µM) was -4.1%. The inhibition ([17]; compound 0.1 µM) was 4.1%, the inhibition ([18]; compound 0.01 µM) was -15.8% and the inhibition ([18]; compound 0.1 µM) was 5.6%. The inhibition ([19]; compound 0.01 µM) was -1.6%, the inhibition ([19]; compound 0.1 µM) was 13.5% and the inhibition ([20]; compound 0.01 µM) was 11%. For the same molecule, the inhibition ([20]; compound 0.1 µM) was 2.4%, the inhibition ([21]; compound 0.01 µM) was -0.2% and the inhibition ([21]; compound 0.1 µM) was -1.6%. For the same molecule, the inhibition ([22]; compound 0.01 µM) was -2.9%, the inhibition ([22]; compound 0.1 µM) was 3.3% and the inhibition ([23]; compound 0.01 µM) was 5.5%. For the same molecule, the inhibition ([23]; compound 0.1 µM) was -5.7%, the inhibition ([24]; compound 0.01 µM) was -1.1% and the inhibition ([24]; compound 0.1 µM) was 8.1%.

With Cn1cc(-c2cnc3ccc4ccc(CS(=O)(=O)CCc5ccccn5)cc4c(=O)c3c2)cn1 the inhibition ([1]; compound 0.1 µM) was -0.4%, the inhibition ([1]; compound 1.0 µM) was -3.6% and the inhibition ([2]; compound 0.1 µM) was 2%. It also gave an inhibition ([2]; compound 1.0 µM) of 2.5%, an inhibition ([3]; compound 0.1 µM) of -12% and an inhibition ([3]; compound 1.0 µM) of 4.2%. For the same molecule, the inhibition ([4]; compound 0.1 µM) was -38.4%, the inhibition ([4]; compound 1.0 µM) was -0.3% and the inhibition ([5]; compound 0.1 µM) was -0.6%. The inhibition ([5]; compound 1.0 µM) was 15.7%, the inhibition ([6]; compound 0.1 µM) was 6.3% and the inhibition ([6]; compound 1.0 µM) was 8.8%. It also gave an inhibition ([7]; compound 0.1 µM) of -3.5%, an inhibition ([7]; compound 1.0 µM) of -7.4% and an inhibition ([8]; compound 0.1 µM) of -2.1%. For the same molecule, the inhibition ([8]; compound 1.0 µM) was 4.7%, the inhibition ([9]; compound 0.1 µM) was -6.6% and the inhibition ([9]; compound 1.0 µM) was 0.8%. For the same molecule, the inhibition ([10]; compound 0.1 µM) was 10.5%, the inhibition ([10]; compound 1.0 µM) was 34.7% and the inhibition ([11]; compound 0.1 µM) was -0.3%. The inhibition ([11]; compound 1.0 µM) was 4.8%, the inhibition ([12]; compound 0.1 µM) was 3.2% and the inhibition ([12]; compound 1.0 µM) was 6.8%. It also gave an inhibition ([13]; compound 0.1 µM) of 3.4%, an inhibition ([13]; compound 1.0 µM) of 0.7% and an inhibition ([14]; compound 0.1 µM) of -11.5%. It also gave an inhibition ([14]; compound 1.0 µM) of -19.7%, an inhibition ([15]; compound 0.1 µM) of -2% and an inhibition ([15]; compound 1.0 µM) of -3.4%. For the same molecule, the inhibition ([16]; compound 0.1 µM) was -2.1%, the inhibition ([16]; compound 1.0 µM) was 22% and the inhibition ([17]; compound 0.1 µM) was 7.9%. It also gave an inhibition ([17]; compound 1.0 µM) of 28.2%, an inhibition ([18]; compound 0.1 µM) of 4.3% and an inhibition ([18]; compound 1.0 µM) of 55.5%. It also gave an inhibition ([19]; compound 0.1 µM) of -15.2%, an inhibition ([19]; compound 1.0 µM) of -0.8% and an inhibition ([20]; compound 0.1 µM) of -36%. It also gave an inhibition ([20]; compound 1.0 µM) of 2.1%, an inhibition ([21]; compound 0.1 µM) of -0.1% and an inhibition ([21]; compound 1.0 µM) of -0.5%. The inhibition ([22]; compound 0.1 µM) was 9.2%, the inhibition ([22]; compound 1.0 µM) was 0.5% and the inhibition ([23]; compound 0.1 µM) was -7.9%. It also gave an inhibition ([23]; compound 1.0 µM) of -7.1%, an inhibition ([24]; compound 0.1 µM) of -9.2% and an inhibition ([24]; compound 1.0 µM) of -1.3%.

Work on Cn1cc(-c2cnc3ccc4ccc(CS(=O)(=O)NCC5CCCCN5)cc4c(=O)c3c2)cn1 (configuration not stated) yielded an inhibition ([1]; compound 0.1 µM) of -9%, an inhibition ([1]; compound 1.0 µM) of -11.8% and an inhibition ([2]; compound 0.1 µM) of 1.1%. It also gave an inhibition ([2]; compound 1.0 µM) of 0.4%, an inhibition ([3]; compound 0.1 µM) of 31.2% and an inhibition ([3]; compound 1.0 µM) of 40.2%. The inhibition ([4]; compound 0.1 µM) was -7.9%, the inhibition ([4]; compound 1.0 µM) was 0.9% and the inhibition ([5]; compound 0.1 µM) was -8.7%. It also gave an inhibition ([6]; compound 0.1 µM) of -1.6%, an inhibition ([6]; compound 1.0 µM) of -5.3% and an inhibition ([7]; compound 0.1 µM) of 0.7%. For the same molecule, the inhibition ([7]; compound 1.0 µM) was -0.4%, the inhibition ([8]; compound 0.1 µM) was 25.2% and the inhibition ([8]; compound 1.0 µM) was 16.7%. It also gave an inhibition ([9]; compound 0.1 µM) of -3.3%, an inhibition ([9]; compound 1.0 µM) of -11.8% and an inhibition ([10]; compound 0.1 µM) of 34.7%. For the same molecule, the inhibition ([11]; compound 0.1 µM) was 3.2%, the inhibition ([11]; compound 1.0 µM) was 2.1% and the inhibition ([12]; compound 0.1 µM) was -8%. The inhibition ([12]; compound 1.0 µM) was 1.3%, the inhibition ([13]; compound 0.1 µM) was -0.1% and the inhibition ([13]; compound 1.0 µM) was -2.7%. For the same molecule, the inhibition ([14]; compound 0.1 µM) was -15.1%, the inhibition ([14]; compound 1.0 µM) was 2.1% and the inhibition ([15]; compound 0.1 µM) was 6.2%. The inhibition ([15]; compound 1.0 µM) was 2.7%, the inhibition ([16]; compound 1.0 µM) was 65% and the inhibition ([17]; compound 0.1 µM) was -5.2%. It also gave an inhibition ([17]; compound 1.0 µM) of 41.8%, an inhibition ([18]; compound 0.1 µM) of 20.9% and an inhibition ([19]; compound 0.1 µM) of 8.6%. It also gave an inhibition ([19]; compound 1.0 µM) of 0%, an inhibition ([20]; compound 0.1 µM) of -38.2% and an inhibition ([20]; compound 1.0 µM) of -8.2%. For the same molecule, the inhibition ([21]; compound 0.1 µM) was 0.7%, the inhibition ([21]; compound 1.0 µM) was 1.9% and the inhibition ([22]; compound 0.1 µM) was 18.4%. For the same molecule, the inhibition ([22]; compound 1.0 µM) was -1.2%, the inhibition ([23]; compound 0.1 µM) was -4.9% and the inhibition ([24]; compound 0.1 µM) was 0.2%. It also gave an inhibition ([24]; compound 1.0 µM) of -6%.

For Cn1cc(-c2cnc3ccc4ccc(CS(N)(=O)=O)cc4c(=O)c3c2)cn1, the inhibition ([1]; compound 0.1 µM) was -0.9%, the inhibition ([1]; compound 1.0 µM) was 23.1% and the inhibition ([2]; compound 0.1 µM) was -7.9%. The inhibition ([2]; compound 1.0 µM) was 3.1%, the inhibition ([3]; compound 0.1 µM) was 6% and the inhibition ([3]; compound 1.0 µM) was -8.2%. It also gave an inhibition ([4]; compound 0.1 µM) of 1.7%, an inhibition ([4]; compound 1.0 µM) of 0.8% and an inhibition ([5]; compound 0.1 µM) of 21.1%. It also gave an inhibition ([5]; compound 1.0 µM) of 19.6%, an inhibition ([6]; compound 0.1 µM) of -0.2% and an inhibition ([6]; compound 1.0 µM) of 9%. It also gave an inhibition ([7]; compound 0.1 µM) of 8%, an inhibition ([7]; compound 1.0 µM) of 4.1% and an inhibition ([8]; compound 0.1 µM) of 15.4%. The inhibition ([8]; compound 1.0 µM) was 16.5%, the inhibition ([9]; compound 0.1 µM) was -5.4% and the inhibition ([9]; compound 1.0 µM) was 2.9%. The inhibition ([10]; compound 0.1 µM) was 41.7%, the inhibition ([10]; compound 1.0 µM) was 75% and the inhibition ([11]; compound 0.1 µM) was 0.2%. The inhibition ([11]; compound 1.0 µM) was 1.3%, the inhibition ([12]; compound 0.1 µM) was -6.7% and the inhibition ([12]; compound 1.0 µM) was 1%. The inhibition ([13]; compound 0.1 µM) was 4.4%, the inhibition ([13]; compound 1.0 µM) was 7.9% and the inhibition ([14]; compound 0.1 µM) was 5.2%. The inhibition ([15]; compound 0.1 µM) was -1.4%, the inhibition ([17]; compound 0.1 µM) was 32.6% and the inhibition ([17]; compound 1.0 µM) was 64%. It also gave an inhibition ([18]; compound 0.1 µM) of 27.7%, an inhibition ([18]; compound 1.0 µM) of 76.2% and an inhibition ([19]; compound 0.1 µM) of -12.4%. For the same molecule, the inhibition ([19]; compound 1.0 µM) was -3%, the inhibition ([20]; compound 0.1 µM) was 5.1% and the inhibition ([21]; compound 0.1 µM) was 1.7%. The inhibition ([21]; compound 1.0 µM) was 7.1%, the inhibition ([22]; compound 0.1 µM) was 2.4% and the inhibition ([22]; compound 1.0 µM) was -1.7%. The inhibition ([23]; compound 0.1 µM) was -3.2%, the inhibition ([23]; compound 1.0 µM) was -9.3% and the inhibition ([24]; compound 0.1 µM) was 1.2%. It also gave an inhibition ([24]; compound 1.0 µM) of -1.7%.
